Experimental data from US20240270701A1, “BETA ADRENERGIC AGONIST AND METHODS OF USING THE SAME” (Curasen Therapeutics, Inc., priority 2021, published 2024).
Where two headings read alike, the source gives them in different places.

What was measured:
B2-AR = target: T1, B2-AR (Homo sapiens, UniProt P07550); assay: cAMP Gs dynamic HTRF assay, cells expressing beta-adrenergic receptor (CHO-K1), B2-AR; format: cell-based; details: for Emax: read-out: Emax (% iso) (%) [B2-AR]; for EC50: read-out: pEC50 [B2-AR] (converted)
T1 construct: expressed in transfected cells; host or cells: CHO-K1
Experimental: (§1) cAMP homogeneous time-resolved fluorescence (HTRF): experimental methods. Compound efficacy is determined using the cAMP Gs dynamic HTRF assay (Cisbio, catalog #62AM4PEC) largely following the manufacturer's instructions, also detailed below.
(§2) Standard serial dilution curves are 10-point, 5-fold dilutions starting from a highest concentration of 10 μM. Controls present on every assay plate are 0.1% DMSO (vehicle control), 1 μM isoproterenol (full beta-adrenergic agonist control) and […] xamoterol (partial beta-adrenergic agonist control). […] Assay plates are centrifuged at 500×g for 10 seconds. Compounds and IBMX are prepared at 2× final dose to compensate for addition of cells.
(§3) Cell preparation: 1× stimulation buffer, washing PBS (Dulbecco's phosphate-buffered saline, − Mg − Ca; Caisson Labs, catalog #PBL01), assay PBS (Dulbecco's phosphate-buffered saline, + Mg, + Ca; Caisson Labs, catalog #PBL02) and Versene (0.02% EDTA disodium salt solution in PBS without calcium or magnesium; Caisson Labs, catalog #EDL01) are pre-warmed to 37° C. Cells expressing beta-adrenergic receptor were washed in washing PBS to remove growth medium and then released from the surface by incubating with Versene for 5-10 minutes at 37° C. Cells are harvested using assay PBS, counted manually by hemocytometer or by an automated cell counter, pelleted by centrifugation (200×g, 5 minutes) and resuspended in 37° C. 1× stimulation buffer to a final density of 1.5×10^6 cells/mL. 5 μL of the suspended cell solution (7500 cell total) are added to all wells of the 384 well assay plate, the assay plate was covered with an Axygen® plate seal (Corning PCR-SP) and incubated in a humidified 37° C. environment supplemented with 5% CO2 for 30 minutes.
(§4) HTRF reagent addition, reading and data analysis: After 30 minutes of cell stimulation with test compound, the assay plates are centrifuged at 500×g for 10 seconds, and incubation was stopped with the addition of 5 μL cAMP-D2 acceptor, diluted 1:21 in detection and lysis buffer 2 (Cisbio 62CL2FDF) was added to all cells. Subsequently, 5 μL Anti-cAMP-Eu Donor, diluted 1:21 in detection and lysis buffer 2, was added to cells. Plates were sealed and reactions gently ‘vortexed’ at 900 rpm on a Heidolph Titramax 1000 for at least 30 minutes at room temperature. Plates are centrifuged again at 500×g for 10 seconds, and HTRF was measured using a Tecan Spark plate reader at 50 flashes per well. […] Potency estimates (EC50 and pEC50) are derived from the four-parameter nonlinear regression of the concentration-effect curve and an estimate of relative efficacy is determined by comparing the magnitude of the test compound HTRF signal window (min−max dose) with the signal window of the full agonist control, isoproterenol.

B1-AR = target: T2, B1-AR (Homo sapiens, UniProt P08588); assay: cAMP Gs dynamic HTRF assay, cells expressing beta-adrenergic receptor (CHO-K1), B1-AR; format: cell-based; details: for EC50: read-out: pEC50 [B1-AR] (converted); for Emax: read-out: Emax (% iso) (%) [B1-AR]
T2 construct: expressed in transfected cells; host or cells: CHO-K1
Experimental: as §1, §2, §3, §4

[1] = CHO-K1, CHO-K1 cells, relative to full agonist isoproterenol
[2] = relative to full agonist isoproterenol
[3] = CHO-K1 cells, relative to full agonist isoproterenol

T2 sequence (P08588 whole entry, species assumed): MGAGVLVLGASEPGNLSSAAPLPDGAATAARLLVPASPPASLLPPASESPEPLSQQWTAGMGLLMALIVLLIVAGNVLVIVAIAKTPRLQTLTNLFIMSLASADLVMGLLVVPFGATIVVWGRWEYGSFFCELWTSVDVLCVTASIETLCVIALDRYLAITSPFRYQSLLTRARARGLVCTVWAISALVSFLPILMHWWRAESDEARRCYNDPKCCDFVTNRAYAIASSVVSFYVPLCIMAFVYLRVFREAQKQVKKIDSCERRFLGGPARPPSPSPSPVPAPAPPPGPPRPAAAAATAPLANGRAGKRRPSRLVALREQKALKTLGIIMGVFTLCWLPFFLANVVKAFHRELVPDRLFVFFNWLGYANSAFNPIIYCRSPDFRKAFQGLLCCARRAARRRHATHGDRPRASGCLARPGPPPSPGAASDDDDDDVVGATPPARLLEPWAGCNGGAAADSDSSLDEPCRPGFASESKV
T1 sequence (P07550 whole entry, species assumed): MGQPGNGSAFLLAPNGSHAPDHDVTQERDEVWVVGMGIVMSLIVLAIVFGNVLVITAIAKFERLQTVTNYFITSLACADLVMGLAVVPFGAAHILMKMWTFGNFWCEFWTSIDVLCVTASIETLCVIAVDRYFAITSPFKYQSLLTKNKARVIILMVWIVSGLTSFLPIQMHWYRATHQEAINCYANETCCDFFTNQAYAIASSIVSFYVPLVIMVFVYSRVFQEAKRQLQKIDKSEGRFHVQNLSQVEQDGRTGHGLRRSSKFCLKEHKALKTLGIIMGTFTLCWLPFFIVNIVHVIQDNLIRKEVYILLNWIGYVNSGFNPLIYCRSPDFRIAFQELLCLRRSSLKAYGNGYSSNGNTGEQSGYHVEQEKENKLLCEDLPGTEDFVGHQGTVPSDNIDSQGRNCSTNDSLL

SMILES	Emax (B2-AR; [1]) [%]	EC50 (B2-AR; CHO-K1 cells, cAMP HTRF) [nM]	EC50 (B1-AR; cAMP HTRF) [nM]	Emax (B1-AR; [2]) [%]	Emax (B2-AR; [3]) [%]	pEC50 [B2-AR] (B2-AR; CHO-K1 cells, cAMP HTRF)	Emax (% iso) (%) [B2-AR] (B2-AR; [3])	pEC50 [B1-AR] (B1-AR; cAMP HTRF)	Emax (% iso) (%) [B1-AR] (B1-AR; [2])
CCC(C)(C)NC[C@H](O)c1cccc2[nH]nc(Cl)c12 [I-45]	70 to 90	< 10	< 10	70 to 90					
CCC(C)(C)NC[C@H](O)c1cccc2[nH]cc(F)c12 [I-46]	> 90	< 10	< 10	> 90					
CCC(C)(C)NC[C@H](O)c1cccc2[nH]ncc12 [I-47]	> 90	< 10	< 10	70 to 90					
CCC(C)(C)NC[C@H](O)c1cccc2[nH]nc(F)c12 [I-48]	> 90	< 10	< 10	> 90					
CCC(C)(C)NC[C@H](O)c1ccc(Cl)c2[nH]ncc12 [I-49]	70 to 90	< 10	< 10	70 to 90					
CCC(C)(C)NC[C@H](O)c1ccc(F)c2[nH]ncc12 [I-50]		< 10	< 10	70 to 90	70 to 90				
CCC(C)(C)NC[C@H](O)c1cc(F)cc2[nH]ncc12 [I-51]		< 10	< 10	70 to 90	> 90				
CCC(C)(C)NC[C@H](O)c1cc(C#N)cc2[nH]ncc12 [I-52]	> 90	10 to 100	100 to 1000	70 to 90					
CCC(C)(C)NC[C@H](O)c1cncc2[nH]ncc12 [I-53]		10 to 100	100 to 1000	70 to 90	70 to 90				
CCC(C)(C)NC[C@H](O)c1cccc2[nH]nc(C)c12 [I-54]		10 to 100	100 to 1000	70 to 90	70 to 90				
Cn1nc(F)c2c([C@@H](O)CNC(C)(C)C)cccc21 [I-55]		< 10	< 10	70 to 90	50 to 70				
Cn1ncc2c([C@@H](O)CNC(C)(C)C)ccc(F)c21 [I-56]		< 10	10 to 100	50 to 70	50 to 70				
Cn1ncc2c([C@@H](O)CNC(C)(C)C)cc(F)cc21 [I-57]	50 to 70	< 10	10 to 100	70 to 90					
CC(C)(C)NC[C@H](O)c1cc(F)c(Cl)c2[nH]ncc12 [I-58]	70 to 90	< 10	< 10	70 to 90					
COc1cc([C@@H](O)CNC(C)(C)C)c2cn[nH]c2c1F [I-59]	< 50	10 to 100	100 to 1000	< 50					
Cc1ccc([C@@H](O)CNC(C)(C)C)c2c(F)n[nH]c12 [I-60]	70 to 90	< 10	< 10	70 to 90					
Cc1n[nH]c2cc(F)cc([C@@H](O)CNC(C)(C)C)c12 [I-61]		< 10	10 to 100	70 to 90	70 to 90				
Cc1c(F)cc([C@@H](O)CNC(C)(C)C)c2cn[nH]c12 [I-62]		< 10	< 10	70 to 90	70 to 90				
CC(C)(C)CNC[C@H](O)c1cccc2c1C(F)(F)C(=O)N2 [I-63]		100 to 1000	> 1000	< 50	> 90				
Cn1ccc(CNC[C@H](O)c2cccc3[nH]ncc23)n1 [I-64]		100 to 1000	100 to 1000	70 to 90	> 90				
Cn1ccc(CNC[C@H](O)c2ccc(F)c3[nH]ncc23)n1 [I-65]		100 to 1000	100 to 1000	50 to 70	70 to 90				
CC(C)(C)NC[C@@H](O)c1cncc2[nH]ncc12 [I-66]	> 90	100 to 1000	> 1000	70 to 90					
Cc1cc([C@@H](O)CNC(C)(C)C)c2cn[nH]c2n1 [I-67]	> 90	< 10	10 to 100	> 90					
CC(C)(C)CNC[C@H](O)c1ccc(Cl)c2[nH]ncc12 [I-68]		< 10	10 to 100	70 to 90	70 to 90				

SMILES	Emax (B2-AR; [1]) [%]	EC50 (B2-AR; CHO-K1 cells, cAMP HTRF) [nM]	EC50 (B1-AR; cAMP HTRF) [nM]	Emax (B1-AR; [2]) [%]	Emax (B2-AR; [3]) [%]	pEC50 [B2-AR] (B2-AR; CHO-K1 cells, cAMP HTRF)	Emax (% iso) (%) [B2-AR] (B2-AR; [3])	pEC50 [B1-AR] (B1-AR; cAMP HTRF)	Emax (% iso) (%) [B1-AR] (B1-AR; [2])
CC(C)(C)CNC[C@H](O)c1cc(C#N)cc2[nH]ncc12 [I-69]	70 to 90	100 to 1000	> 1000	50 to 70					
CNc1ncc([C@@H](O)CNC(C)(C)C)cn1 [I-70]		10 to 100	100 to 1000	70 to 90	50 to 70				
Cc1cc([C@@H](O)CNC(C)(C)C)cc2cccnc12 [I-71]		10 to 100	100 to 1000	50 to 70	< 50				
Cc1ccnc2ccc([C@@H](O)CNC(C)(C)C)cc12 [I-72]	< 50	10 to 100	100 to 1000	50 to 70					
Cc1cnc2ccc([C@@H](O)CNC(C)(C)C)cc2c1 [I-73]		100 to 1000	> 1000	< 50	< 50				
COc1ccnc2ccc([C@@H](O)CNC(C)(C)C)cc12 [I-74]	< 50	> 1000	100 to 1000	< 50					
O[C@@H](CNCC1CC1)c1ccc(F)c2[nH]ncc12 [I-75]	> 90	< 10	< 10	70 to 90					
O[C@@H](CNCC1CC1)c1cccc2[nH]ncc12 [I-76]		< 10	< 10	70 to 90	> 90				
CC(C)(C)NC[C@H](O)c1ccc2ncncc2c1 [I-77]	50 to 70	100 to 1000	> 1000	50 to 70					
Cn1ccc(CNC[C@H](O)c2cccc3[nH]nc(F)c23)n1 [I-78]		100 to 1000	100 to 1000	70 to 90	> 90				
Cc1cc2ncccc2cc1[C@@H](O)CNC(C)(C)C [I-79]		100 to 1000	> 1000	> 90	< 50				
CC(C)(C)NC[C@H](O)c1cc2cccnc2cc1Cl [I-80]	< 50	10 to 100	100 to 1000	70 to 90					
CC1(CNC[C@H](O)c2ccc(F)c3[nH]ncc23)CC1 [I-81]		< 10	10 to 100	70 to 90	> 90				
Cc1ccc2cc([C@@H](O)CNC(C)(C)C)ccc2n1 [I-82]		> 1000	> 1000	< 50	< 50				
CC(C)(C)NC[C@H](O)c1ccc2nccnc2c1 [I-83]		10 to 100	10 to 100	70 to 90	50 to 70				
Cn1ncc2c([C@@H](O)CNC(C)(C)C)cc(F)cc21 [I-84]						A (A=>8)	B (B=>70-90%)	B (B=>7-8)	B (B=>70-90%)
CC(C)(C)NC[C@H](O)c1cccc2c(F)n[nH]c12 [I-85]	50 to 70	100 to 1000	100 to 1000	70 to 90					
CC(C)(C)NC[C@H](O)c1cnc(N)s1 [I-86]	70 to 90	100 to 1000	> 1000	70 to 90					
CC(C)(C)CNC[C@H](O)c1ccc(F)c2[nH]ncc12 [I-87]		10 to 100	100 to 1000	50 to 70	70 to 90				
CC(C)(C)CNC[C@H](O)c1cccc2[nH]ncc12 [I-88]		< 10	100 to 1000	70 to 90	> 90				
CC(C)(C)CNC[C@H](O)c1cccc2[nH]nc(F)c12 [I-90]	> 90	10 to 100	100 to 1000	70 to 90					
CC1C(=O)Nc2cccc([C@@H](O)CNC(C)(C)C)c21 (some centres unmarked) [I-91]		> 1000	> 1000	< 50	< 50				
CC(C)(C)CNC[C@H](O)c1cc(F)cc2[nH]ncc12 [I-92]	> 90	< 10	10 to 100	70 to 90					
